Assay results taken from the SangsterLogP compilation.

experiment: method code SF, from DOI: 10.1002/em.2850190107, PMID: 1732103

Row | SMILES | logP
1 | COc1ccc(N)c(C)c1 | 1.23
2 | Nc1cccc2c1Cc1ccccc1-2 | 3.18
3 | Nc1ccc2c(c1)Cc1ccccc1-2 | 3.14
4 | Nc1cc(Cl)ccc1O | 1.81
5 | Nc1ccc(Oc2ccc(N)cc2)cc1 | 1.36
6 | Nc1ccccc1-c1ccccc1N | 1.34
7 | Nc1ccc2c(c1)Cc1cc(Br)ccc1-2 | 3.92
8 | Nc1cccc2cc3ccccc3cc12 | 3.69
9 | COc1cc(-c2ccc(N)c(OC)c2)ccc1N | 1.81
10 | Nc1ccc2c3c(cccc13)-c1ccccc1-2 | 4.2
11 | Cc1ccc(N)c(N)c1 | 0.66
12 | Cc1ccc(C)c(N)c1 | 1.83
13 | Cc1ccc(N)cc1N | 0.14
14 | Nc1cc2ccccc2c2ccccc12 | 3.56
15 | Nc1cccc(C(F)(F)F)c1 | 2.29
